The source of these data is patent publication US20220177538A1, “CO-AGONISTS AT GLP-1 AND GIP RECEPTORS SUITABLE FOR ORAL DELIVERY” (Novo Nordisk A/S, priority 2020, published 2022).

One assay deals with T1, human GIP receptor (Homo sapiens, UniProt P48546).
T1 construct: expressed in transfected cells; host or cells: BHK (parent line BHKTS13), clone BHK CRE luc2P hGIPR
T1 sequence (P48546 22-466): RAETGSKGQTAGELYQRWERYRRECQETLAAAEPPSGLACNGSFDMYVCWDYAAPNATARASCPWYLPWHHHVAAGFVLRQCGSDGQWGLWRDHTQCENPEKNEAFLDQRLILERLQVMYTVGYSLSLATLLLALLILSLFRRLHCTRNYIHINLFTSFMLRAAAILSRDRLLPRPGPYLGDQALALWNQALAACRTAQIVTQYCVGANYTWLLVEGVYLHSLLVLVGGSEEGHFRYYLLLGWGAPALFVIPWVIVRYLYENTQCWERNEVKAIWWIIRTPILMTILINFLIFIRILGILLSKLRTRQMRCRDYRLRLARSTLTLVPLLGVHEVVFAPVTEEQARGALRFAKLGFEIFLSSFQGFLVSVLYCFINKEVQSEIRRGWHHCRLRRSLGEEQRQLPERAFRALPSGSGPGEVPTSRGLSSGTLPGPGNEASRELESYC
Kind of assay: In vitro functional potency, CRE luciferase reporter, whole BHK cells (hGIPR). Type of assay: cell-based. The settings on record: BHK CRE luc2P hGIPR cells. The method, boiled down:
(§1)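 BHK CRE luc2P cells stably expressing hGIPR or hGLP-1R were seeded at 5000 cells/well overnight. They were treated 3 h at 37° C with a 12-point, 3.5-fold compound series in buffer with or without HSA, and luciferase luminescence was read. Values come from log(agonist)-response regression, averaging at least two replicates.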
(A reporter such as luciferase makes a cellular process visible.)

The next assay addresses human GLP-1 receptor (Homo sapiens, UniProt P43220). Kind of assay: In vitro functional potency, CRE luciferase reporter, whole BHK cells (hGLP-1R). The class given is cell-based. Particulars: BHK CRE luc2P hGLP-1R cells. More on the design: expressed in transfected cells; host or cells: BHK (parent line BHKTS13), clone BHK CRE luc2P hGLP-1R. The method, boiled down: as §1

[1] abbreviates: 0% HSA, read-out: hGIPR, CRE Luc 0% HSA EC50.
[2] abbreviates: hGIPR, CRE Luc 1% HSA EC50, 1% HSA.
Setting [3] is: 0% HSA, read-out: hGLP-1R, CRE Luc 0% HSA EC50.
[4] abbreviates: hGLP-1R, CRE Luc 1% HSA EC50, 1% HSA.

Like-named read-outs stand apart in the source and are kept apart here. Starred links: 1 amine or outer side, 2 acyl side, 3 side chain; linkers in the order of their positions; H or OH if unused. Non-standard residues stand in square brackets, D forms with d. Residues, ends and D or L forms follow the SMILES beside them. Groups on a side chain read outwards from the residue. *: point of attachment. C18 diacid = O=C(O)CCCCCCCCCCCCCCCCC(=O)*; C16 diacid = O=C(O)CCCCCCCCCCCCCCC(=O)*; γGlu = O=C(O)[C@H](CCC(=O)[*:2])N[*:1]; εLys = N[C@@H](CCCCN[*:1])C(=O)[*:2]; AEEA = NCCOCCOCC(=O)O; Aib = CC(C)(N)C(=O)O

Sequence of human GLP-1 receptor (P43220 24-463): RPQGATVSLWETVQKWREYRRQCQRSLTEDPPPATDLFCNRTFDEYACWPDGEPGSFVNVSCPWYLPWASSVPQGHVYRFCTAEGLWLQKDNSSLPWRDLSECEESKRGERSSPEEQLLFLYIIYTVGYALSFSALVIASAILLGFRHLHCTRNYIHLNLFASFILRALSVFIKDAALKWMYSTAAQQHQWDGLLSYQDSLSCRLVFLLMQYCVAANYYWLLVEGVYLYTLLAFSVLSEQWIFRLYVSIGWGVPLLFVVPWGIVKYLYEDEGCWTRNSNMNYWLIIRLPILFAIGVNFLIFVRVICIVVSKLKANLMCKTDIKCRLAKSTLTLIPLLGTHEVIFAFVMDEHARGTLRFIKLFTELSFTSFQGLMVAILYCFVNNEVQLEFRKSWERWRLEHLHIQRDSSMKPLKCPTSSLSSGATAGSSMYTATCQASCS

Consider `CC[C@H](C)[C@H](NC(=O)[C@H](Cc1ccccc1)NC(=O)[C@H](CCC(=O)O)NC(=O)[C@H](CCCNC(=N)N)NC(=O)[C@H](C)NC(=O)[C@H](C)NC(=O)[C@H](CCC(N)=O)NC(=O)[C@H](CCC(=O)O)NC(=O)[C@H](CCC(=O)O)NC(=O)[C@H](CC(C)C)NC(=O)[C@H](Cc1ccc(O)cc1)NC(=O)[C@H](CCCCNC(=O)[C@@H](N)CCCCNC(=O)[C@@H](N)CCCCNC(=O)CC[C@H](NC(=O)CCCCCCCCCCCCCCCCC(=O)O)C(=O)O)NC(=O)[C@H](CO)NC(=O)[C@H](Cc1ccc(O)cc1)NC(=O)[C@H](CC(=O)O)NC(=O)[C@H](CO)NC(=O)[C@@H](NC(=O)[C@H](Cc1ccccc1)NC(=O)[C@@H](NC(=O)CNC(=O)[C@H](CCC(=O)O)NC(=O)C(C)(C)NC(=O)[C@@H](N)Cc1ccc(O)cc1)[C@@H](C)O)[C@@H](C)O)C(=O)N[C@@H](CC(N)=O)C(=O)N[C@@H](Cc1c[nH]c2ccccc12)C(=O)N[C@@H](CC(C)C)C(=O)N[C@@H](CC(C)C)C(=O)N[C@@H](C)C(=O)NCC(=O)NCC(=O)N1CCC[C@H]1C(=O)N[C@@H](CO)C(=O)N[C@@H](CO)C(=O)NCC(=O)N[C@@H](C)C(=O)N1CCC[C@H]1C(=O)N1CCC[C@H]1C(=O)N1CCC[C@H]1C(=O)N[C@@H](CO)C(=O)O` [Compound 41], for which the EC50 (in general, the concentration needed to bring the measured effect to its halfway point) amounted to 0.0049 nM at human GIP receptor (setting [1]), 0.0793 nM at human GIP receptor (setting [2]), 0.0012 nM at human GLP-1 receptor (setting [3]) and 0.0314 nM on human GLP-1 receptor (setting [4]).

`CC[C@H](C)[C@H](NC(=O)[C@H](Cc1ccccc1)NC(=O)[C@H](CCC(=O)O)NC(=O)[C@H](CCCNC(=N)N)NC(=O)[C@H](C)NC(=O)[C@H](C)NC(=O)[C@H](CCC(N)=O)NC(=O)[C@H](CCC(=O)O)NC(=O)[C@H](CCC(=O)O)NC(=O)[C@H](CC(C)C)NC(=O)[C@H](Cc1ccc(O)cc1)NC(=O)[C@@H](NC(=O)[C@H](CO)NC(=O)[C@H](Cc1ccc(O)cc1)NC(=O)[C@H](CC(=O)O)NC(=O)[C@H](CO)NC(=O)[C@@H](NC(=O)[C@H](Cc1ccccc1)NC(=O)[C@@H](NC(=O)CNC(=O)[C@H](CCC(=O)O)NC(=O)C(C)(C)NC(=O)[C@@H](N)Cc1ccc(O)cc1)[C@@H](C)O)[C@@H](C)O)[C@@H](C)CC)C(=O)N[C@@H](CC(N)=O)C(=O)N[C@@H](Cc1c[nH]c2ccccc12)C(=O)N[C@@H](CC(C)C)C(=O)N[C@@H](CC(C)C)C(=O)N[C@@H](C)C(=O)NCC(=O)NCC(=O)N1CCC[C@H]1C(=O)N[C@@H](CO)C(=O)N[C@@H](CCCCNC(=O)[C@@H](N)CCCCNC(=O)[C@@H](N)CCCCNC(=O)CC[C@H](NC(=O)CCCCCCCCCCCCCCCCC(=O)O)C(=O)O)C(=O)NCC(=O)N[C@@H](C)C(=O)N1CCC[C@H]1C(=O)N1CCC[C@H]1C(=O)N1CCC[C@H]1C(=O)N[C@@H](CO)C(=O)O` [Compound 42] (H-Y[Aib]EGTFTSDYSIYLEEQAAREFINWLLAGGPSK([εLys-εLys-γGlu-C18 diacid])GAPPPS-OH): the EC50 came to 0.0059 nM on human GIP receptor (setting [1]), 0.306 nM at human GIP receptor (setting [2]), 0.0023 nM at human GLP-1 receptor (setting [3]) and 0.0835 nM on human GLP-1 receptor (setting [4]).

With `CC[C@H](C)[C@H](NC(=O)[C@H](Cc1ccccc1)NC(=O)[C@H](CCC(=O)O)NC(=O)[C@H](CCCNC(=N)N)NC(=O)[C@H](C)NC(=O)[C@H](C)NC(=O)[C@H](CCC(N)=O)NC(=O)[C@H](CCC(=O)O)NC(=O)[C@H](CCC(=O)O)NC(=O)[C@H](CC(C)C)NC(=O)[C@H](CC(C)C)NC(=O)[C@@H](NC(=O)[C@H](CO)NC(=O)[C@H](Cc1ccc(O)cc1)NC(=O)[C@H](CC(=O)O)NC(=O)[C@H](CO)NC(=O)[C@@H](NC(=O)[C@H](Cc1ccccc1)NC(=O)[C@@H](NC(=O)CNC(=O)[C@H](CCC(=O)O)NC(=O)C(C)(C)NC(=O)[C@@H](N)Cc1ccc(O)cc1)[C@@H](C)O)[C@@H](C)O)[C@@H](C)CC)C(=O)N[C@@H](CC(N)=O)C(=O)N[C@@H](Cc1c[nH]c2ccccc12)C(=O)N[C@@H](CC(C)C)C(=O)N[C@@H](CC(C)C)C(=O)N[C@@H](C)C(=O)NCC(=O)NCC(=O)N1CCC[C@H]1C(=O)N[C@@H](CO)C(=O)N[C@@H](CCCCNC(=O)[C@@H](N)CCCCNC(=O)[C@@H](N)CCCCNC(=O)CC[C@H](NC(=O)CCCCCCCCCCCCCCCCC(=O)O)C(=O)O)C(=O)NCC(=O)N[C@@H](C)C(=O)N1CCC[C@H]1C(=O)N1CCC[C@H]1C(=O)N1CCC[C@H]1C(=O)N[C@@H](CO)C(=O)O` [Compound 44] (H-Y[Aib]EGTFTSDYSILLEEQAAREFINWLLAGGPSK([εLys-εLys-γGlu-C18 diacid])GAPPPS-OH), the EC50 on human GIP receptor (setting [1]) worked out at 0.0057 nM; on human GIP receptor (setting [2]) it was 0.365 nM; at human GLP-1 receptor (setting [3]), 0.0042 nM; on human GLP-1 receptor (setting [4]), 0.241 nM.

Turning to `CC[C@H](C)[C@H](NC(=O)[C@H](Cc1ccccc1)NC(=O)[C@H](CCC(=O)O)NC(=O)[C@H](CCCNC(=N)N)NC(=O)[C@H](C)NC(=O)[C@H](C)NC(=O)[C@H](CCC(N)=O)NC(=O)[C@H](CCC(=O)O)NC(=O)[C@H](CCC(=O)O)NC(=O)[C@H](CC(C)C)NC(=O)[C@H](CC(C)C)NC(=O)[C@@H](NC(=O)[C@H](CO)NC(=O)[C@H](Cc1ccc(O)cc1)NC(=O)[C@H](CC(=O)O)NC(=O)[C@H](CO)NC(=O)[C@@H](NC(=O)[C@H](Cc1ccccc1)NC(=O)[C@@H](NC(=O)CNC(=O)[C@H](CCC(=O)O)NC(=O)C(C)(C)NC(=O)[C@@H](N)Cc1ccc(O)cc1)[C@@H](C)O)[C@@H](C)O)[C@@H](C)CC)C(=O)N[C@@H](CCC(=O)O)C(=O)N[C@@H](Cc1c[nH]c2ccccc12)C(=O)N[C@@H](CC(C)C)C(=O)N[C@@H](CC(C)C)C(=O)N[C@@H](C)C(=O)NCC(=O)NCC(=O)N1CCC[C@H]1C(=O)N[C@@H](CO)C(=O)N[C@@H](CCCCNC(=O)COCCOCCNC(=O)COCCOCCNC(=O)CC[C@H](NC(=O)CCCCCCCCCCCCCCCCC(=O)O)C(=O)O)C(=O)NCC(=O)N[C@@H](C)C(=O)N1CCC[C@H]1C(=O)N1CCC[C@H]1C(=O)N1CCC[C@H]1C(=O)N[C@@H](CO)C(=O)O` [Compound 45] (H-Y[Aib]EGTFTSDYSILLEEQAAREFIEWLLAGGPSK([AEEA-AEEA-γGlu-C18 diacid])GAPPPS-OH), the EC50 was found to be 0.0038 nM on human GIP receptor (setting [1]), 1.22 nM on human GIP receptor (setting [2]), 0.0039 nM on human GLP-1 receptor (setting [3]) and 1.58 nM at human GLP-1 receptor (setting [4]).

Take `CC[C@H](C)[C@H](NC(=O)[C@H](Cc1ccccc1)NC(=O)[C@H](CCC(=O)O)NC(=O)[C@H](CCCNC(=N)N)NC(=O)[C@H](C)NC(=O)[C@H](C)NC(=O)[C@H](CCC(N)=O)NC(=O)[C@H](CCC(=O)O)NC(=O)[C@H](CCC(=O)O)NC(=O)[C@H](CC(C)C)NC(=O)[C@H](CC(C)C)NC(=O)[C@@H](NC(=O)[C@H](CO)NC(=O)[C@H](Cc1ccc(O)cc1)NC(=O)[C@H](CC(=O)O)NC(=O)[C@H](CO)NC(=O)[C@@H](NC(=O)[C@H](Cc1ccccc1)NC(=O)[C@@H](NC(=O)CNC(=O)[C@H](CCC(=O)O)NC(=O)C(C)(C)NC(=O)[C@@H](N)Cc1ccc(O)cc1)[C@@H](C)O)[C@@H](C)O)[C@@H](C)CC)C(=O)N[C@@H](CCC(=O)O)C(=O)N[C@@H](Cc1c[nH]c2ccccc12)C(=O)N[C@@H](CC(C)C)C(=O)N[C@@H](CC(C)C)C(=O)N[C@@H](C)C(=O)NCC(=O)NCC(=O)N1CCC[C@H]1C(=O)N[C@@H](CO)C(=O)N[C@@H](CCCCNC(=O)[C@@H](N)CCCCNC(=O)[C@@H](N)CCCCNC(=O)CC[C@H](NC(=O)CCCCCCCCCCCCCCC(=O)O)C(=O)O)C(=O)NCC(=O)N[C@@H](C)C(=O)N1CCC[C@H]1C(=O)N1CCC[C@H]1C(=O)N1CCC[C@H]1C(=O)N[C@@H](CO)C(=O)O` [Compound 46] (H-Y[Aib]EGTFTSDYSILLEEQAAREFIEWLLAGGPSK([εLys-εLys-γGlu-C16 diacid])GAPPPS-OH): the EC50 at human GIP receptor (setting [1]) was found to be 0.0018 nM; at human GIP receptor (setting [2]), 0.097 nM; on human GLP-1 receptor (setting [3]), 0.0015 nM; on human GLP-1 receptor (setting [4]), 0.111 nM.
